Assays:
Phytophthora infestans = assay: whole plant or invertebrate; assay type: in vivo; conditions: in Solanum lycopersicum, foliar, 96 h, read-out: control of fungal infection, Phytophthora infestans
Plasmopara viticola = assay: Leaf disk assay, Plasmopara viticola (downy mildew of grapevine), preventive; assay type: in vivo; conditions: foliar, 168 h, grapevine leaf disks, assessed seven days after inoculation, read-out: control of fungal infection, Plasmopara viticola
[1] = test system: Erysiphe graminis f.sp. tritici; assay: Leaf disk assay, Erysiphe graminis f.sp. tritici (wheat powdery mildew), preventive; assay type: in vivo; conditions: Blumeria graminis, foliar, 96 h, wheat leaf segments, assessed four days after inoculation, read-out: control of fungal infection, Erysiphe graminis f.sp. tritici
Experimental: The compounds were tested in a leaf disk assay, with methods described below. The test compounds were dissolved in DMSO and diluted into water to 200 ppm. In the case of the test on Pythium ultimum, they were dissolved in DMSO and diluted into water to 20 […] graminis f.sp. tritici (wheat powdery mildew): Wheat leaf segments were placed on agar in a 24-well plate and sprayed with a solution of the test compound. After allowing to dry completely, for between 12 and 24 hours, the leaf disks were inoculated with a spore suspension of the fungus. After appropriate incubation the activity of a compound was assessed four days after inoculation as preventive fungicidal activity.

[2] = test system: Puccinia recondita f.sp. tritici; assay: Leaf disk assay, Puccinia recondita f.sp. tritici (wheat brown rust), preventive; assay type: in vivo; conditions: foliar, 216 h, wheat leaf segments, assessed nine days after inoculation, read-out: control of fungal infection, Puccinia recondita f.sp. tritici
Septoria nodorum = assay: Leaf disk assay, Septoria nodorum (wheat glume blotch), preventive; assay type: in vivo; conditions: Parastagonospora nodorum, foliar, 96 h, wheat leaf segments, assessed four days after inoculation, read-out: control of fungal infection, Septoria nodorum
Septoria tritici = assay: Growth inhibition in nutrient broth, Septoria tritici (leaf blotch), photometric; assay type: cell-based; conditions: Zymoseptoria tritici, PDB broth, 24 C, 72 hrs, read-out: control of fungal infection, Septoria tritici
Pythium ultimum = assay: Growth inhibition in potato dextrose broth, Pythium ultimum (damping off), photometric; assay type: cell-based; conditions: Globisporangium ultimum, 24° C., 48 hours, read-out: control of fungal infection, Pythium ultimum
Experimental: The compounds were tested in a leaf disk assay, with methods described below. The test compounds were dissolved in DMSO and diluted into water to 200 ppm. In the case of the test on Pythium ultimum, they were dissolved in DMSO and diluted into water to 20 ppm. Pythium ultimum (Damping off): Mycelial fragments of the fungus, prepared from a fresh liquid culture, were mixed into potato dextrose broth. A solution of the test compound in dimethyl sulphoxide was diluted with water to 20 ppm then placed into a 96-well microtiter plate and the nutrient broth containing the fungal spores was added. The test plate was incubated at 24° C. and the inhibition of growth was determined photometrically after 48 hours.

Fusarium culmorum = assay: Growth inhibition in nutrient broth, Fusarium culmorum (root rot), photometric; assay type: cell-based; conditions: 48 h, read-out: control of fungal infection, Fusarium culmorum
Experimental: The compounds were tested in a leaf disk assay, with methods described below. The test compounds were dissolved in DMSO and diluted into water to 200 ppm. In the case of the test on Pythium ultimum, they were dissolved in DMSO and diluted into water to 20 ppm.
Fusarium culmorum (root rot): Conidia of the fungus from cryogenic storage were directly mixed into nutrient broth (PDB potato dextrose broth). After placing a (DMSO) solution of the test compounds into a microtiter plate (96-well format) the nutrient broth containing the fungal spores was added. The test plates were incubated at 24 C and the inhibition of growth was determined photometrically after 48 hrs.

C#Cc1cnc2ccc(OC(SC)C(=O)NC(C)(C#N)COC)cc2c1 (stereo not drawn) [Example 25]
≥ 60%: pest or weed control at 200 ppm (Phytophthora infestans) | pest or weed control at 200 ppm (Plasmopara viticola) | pest or weed control at 200 ppm [1] | pest or weed control at 200 ppm [2] | pest or weed control at 200 ppm (Septoria nodorum) | inhibition of growth at 60 ppm (Septoria tritici) | inhibition of growth at 20 ppm (Pythium ultimum)

COCC#CC(C)(C)NC(=O)C(Oc1ccc2ncc(C#CCO)cc2c1)SC (stereo not drawn) [Example 49]
≥ 60%: pest or weed control at 200 ppm (Phytophthora infestans) | pest or weed control at 200 ppm (Plasmopara viticola) | pest or weed control at 200 ppm [2] | inhibition of growth at 20 ppm (Pythium ultimum)

CC#Cc1cnc2ccc(OC(SC)C(=O)NC(C)(C)C#CCOC)cc2c1 (stereo not drawn) [Example 55]
≥ 60%: pest or weed control at 200 ppm (Phytophthora infestans) | pest or weed control at 200 ppm (Plasmopara viticola) | pest or weed control at 200 ppm [1] | pest or weed control at 200 ppm [2] | pest or weed control at 200 ppm (Septoria nodorum) | inhibition of growth at 60 ppm (Septoria tritici) | inhibition of growth at 20 ppm (Pythium ultimum)

C#Cc1cnc2c(Cl)cc(OC(SC)C(=O)NC(C)(C#N)COC)cc2c1 (stereo not drawn) [Example 64]
≥ 60%: pest or weed control at 200 ppm (Phytophthora infestans) | pest or weed control at 200 ppm (Plasmopara viticola) | pest or weed control at 200 ppm [1] | pest or weed control at 200 ppm [2] | pest or weed control at 200 ppm (Septoria nodorum) | inhibition of growth at 60 ppm (Septoria tritici) | inhibition of growth at 20 ppm (Pythium ultimum)

C#Cc1cnc2ccc(OC(SC)C(=O)NC(C)(C#N)CSC)cc2c1 (stereo not drawn) [Example 67]
≥ 60%: pest or weed control at 200 ppm (Phytophthora infestans) | pest or weed control at 200 ppm (Plasmopara viticola) | pest or weed control at 200 ppm [1] | pest or weed control at 200 ppm [2] | inhibition of growth at 60 ppm (Septoria tritici) | inhibition of growth at 20 ppm (Pythium ultimum)

CSC(Oc1ccc2ncc(C#CBr)cc2c1)C(=O)NC(C)(C)C (stereo not drawn) [Example 69]
≥ 60%: pest or weed control at 200 ppm (Phytophthora infestans) | pest or weed control at 200 ppm (Plasmopara viticola) | inhibition of growth at 60 ppm (Septoria tritici) | inhibition of growth at 60 ppm (Fusarium culmorum) | inhibition of growth at 20 ppm (Pythium ultimum)

C#Cc1cnc2ccc(OC(SC)C(=O)NC3(C#N)CCC3)cc2c1 (stereo not drawn) [Example 83]
≥ 60%: pest or weed control at 200 ppm (Phytophthora infestans) | pest or weed control at 200 ppm (Plasmopara viticola) | pest or weed control at 200 ppm [1] | pest or weed control at 200 ppm [2] | pest or weed control at 200 ppm (Septoria nodorum) | inhibition of growth at 60 ppm (Septoria tritici)

C#Cc1cnc2ccc(OC(SC)C(=O)NC(C)(C)CCOC)cc2c1 (stereo not drawn) [Example 85]
≥ 60%: pest or weed control at 200 ppm (Phytophthora infestans) | pest or weed control at 200 ppm (Plasmopara viticola) | pest or weed control at 200 ppm [1] | pest or weed control at 200 ppm [2] | pest or weed control at 200 ppm (Septoria nodorum) | inhibition of growth at 60 ppm (Septoria tritici) | inhibition of growth at 20 ppm (Pythium ultimum)

C#Cc1cnc2ccc(OC(OC)C(=O)NC(C)(C)C#CC)cc2c1 (stereo not drawn) [Example 86]
≥ 60%: pest or weed control at 200 ppm (Phytophthora infestans) | pest or weed control at 200 ppm (Plasmopara viticola) | pest or weed control at 200 ppm [1] | pest or weed control at 200 ppm [2] | pest or weed control at 200 ppm (Septoria nodorum) | inhibition of growth at 60 ppm (Septoria tritici)

C#Cc1cnc2ccc(OC(SC)C(=O)NC(C)(COC)COC)cc2c1 (stereo not drawn) [Example 88]
≥ 60%: pest or weed control at 200 ppm (Phytophthora infestans) | pest or weed control at 200 ppm (Plasmopara viticola) | pest or weed control at 200 ppm [1] | pest or weed control at 200 ppm [2] | pest or weed control at 200 ppm (Septoria nodorum) | inhibition of growth at 60 ppm (Septoria tritici) | inhibition of growth at 20 ppm (Pythium ultimum)

C#Cc1cnc2ccc(OC(SC)C(=O)NC(C)(C)C#CCCOC)cc2c1 (stereo not drawn) [Example 103]
≥ 60%: pest or weed control at 200 ppm (Phytophthora infestans) | pest or weed control at 200 ppm (Plasmopara viticola) | pest or weed control at 200 ppm [1] | pest or weed control at 200 ppm [2] | pest or weed control at 200 ppm (Septoria nodorum)

C#Cc1cnc2cc(F)c(OC(SC)C(=O)NC(C)(C)C(=O)OC)cc2c1 (stereo not drawn) [Example 105]
≥ 60%: pest or weed control at 200 ppm (Phytophthora infestans) | pest or weed control at 200 ppm (Plasmopara viticola) | pest or weed control at 200 ppm [1] | pest or weed control at 200 ppm [2] | pest or weed control at 200 ppm (Septoria nodorum) | inhibition of growth at 60 ppm (Septoria tritici)

C#Cc1cnc2c(C)cc(OC(CC)C(=O)NC(C)(C)C#CCOC)cc2c1 (stereo not drawn) [Example 112]
≥ 60%: pest or weed control at 200 ppm (Phytophthora infestans) | pest or weed control at 200 ppm (Plasmopara viticola) | pest or weed control at 200 ppm [1] | pest or weed control at 200 ppm [2] | pest or weed control at 200 ppm (Septoria nodorum) | inhibition of growth at 60 ppm (Septoria tritici)

C#Cc1cnc2c(Cl)cc(OC(SC)C(=O)NC(C)(C)C#CCCCCl)cc2c1 (stereo not drawn) [Example 123]
≥ 60%: pest or weed control at 200 ppm (Phytophthora infestans) | pest or weed control at 200 ppm (Plasmopara viticola) | pest or weed control at 200 ppm [1] | pest or weed control at 200 ppm [2] | pest or weed control at 200 ppm (Septoria nodorum) | inhibition of growth at 60 ppm (Septoria tritici)

C#Cc1cnc2ccc(OC(OC)C(=O)NC(C)(C#N)COC)cc2c1 (stereo not drawn) [Example 128]
≥ 60%: pest or weed control at 200 ppm (Phytophthora infestans) | pest or weed control at 200 ppm (Plasmopara viticola) | pest or weed control at 200 ppm [1] | pest or weed control at 200 ppm (Septoria nodorum) | inhibition of growth at 60 ppm (Septoria tritici) | inhibition of growth at 20 ppm (Pythium ultimum)

C#Cc1cnc2c(C)cc(OC(SC)C(=O)NC(C)(C=O)COC)cc2c1 (stereo not drawn) [Example 134]
≥ 60%: pest or weed control at 200 ppm (Phytophthora infestans) | pest or weed control at 200 ppm (Plasmopara viticola) | pest or weed control at 200 ppm [1] | pest or weed control at 200 ppm [2] | pest or weed control at 200 ppm (Septoria nodorum) | inhibition of growth at 60 ppm (Septoria tritici)

C#Cc1cnc2ccc(OC(SC)C(=O)NC3(CO)CCC3)cc2c1 (stereo not drawn) [Example 148]
≥ 60%: pest or weed control at 200 ppm (Phytophthora infestans) | pest or weed control at 200 ppm (Plasmopara viticola) | pest or weed control at 200 ppm [1] | pest or weed control at 200 ppm [2] | inhibition of growth at 60 ppm (Septoria tritici)

C#Cc1cnc2ccc(OC(SC)C(=O)NC3(C(OC)OC)CCC3)cc2c1 (stereo not drawn) [Example 153]
≥ 60%: pest or weed control at 200 ppm (Phytophthora infestans) | pest or weed control at 200 ppm (Plasmopara viticola) | pest or weed control at 200 ppm [1] | pest or weed control at 200 ppm (Septoria nodorum) | inhibition of growth at 60 ppm (Septoria tritici) | inhibition of growth at 20 ppm (Pythium ultimum)

C#Cc1cnc2ccc(OC(OC)C(=O)NC(C)(C#C)COC)cc2c1 (stereo not drawn) [Example 155]
≥ 60%: pest or weed control at 200 ppm [1] | pest or weed control at 200 ppm [2] | pest or weed control at 200 ppm (Septoria nodorum)

C#CCOCC(C)(COCC#C)NC(=O)C(Oc1ccc2ncc(C#C)cc2c1)SC (stereo not drawn) [Example 165]
≥ 60%: pest or weed control at 200 ppm (Phytophthora infestans) | pest or weed control at 200 ppm (Plasmopara viticola) | pest or weed control at 200 ppm [1] | pest or weed control at 200 ppm [2] | pest or weed control at 200 ppm (Septoria nodorum) | inhibition of growth at 60 ppm (Septoria tritici) | inhibition of growth at 20 ppm (Pythium ultimum)

C#Cc1cnc2cc(F)c(OC(SC)C(=O)NC(C)(C)C#CCC)cc2c1 (stereo not drawn) [Example 190]
≥ 60%: pest or weed control at 200 ppm (Phytophthora infestans) | pest or weed control at 200 ppm (Plasmopara viticola) | inhibition of growth at 60 ppm (Fusarium culmorum) | inhibition of growth at 20 ppm (Pythium ultimum)

C#Cc1cnc2cc(F)c(OC(CC)C(=O)NC(C)(C)C=O)cc2c1 (stereo not drawn) [Example 193]
≥ 60%: pest or weed control at 200 ppm (Phytophthora infestans) | pest or weed control at 200 ppm (Plasmopara viticola) | inhibition of growth at 60 ppm (Fusarium culmorum) | inhibition of growth at 20 ppm (Pythium ultimum)

C#Cc1cnc2ccc(OC(SC)C(=O)NC(C)(C)CC#N)cc2c1 (stereo not drawn) [Example 197]
≥ 60%: pest or weed control at 200 ppm (Phytophthora infestans) | pest or weed control at 200 ppm (Plasmopara viticola) | inhibition of growth at 60 ppm (Fusarium culmorum) | inhibition of growth at 20 ppm (Pythium ultimum)

C#Cc1cnc2ccc(OC(SC)C(=O)NC(C)(C#C)CC)cc2c1 (stereo not drawn) [Example 205]
≥ 60%: pest or weed control at 200 ppm (Phytophthora infestans) | pest or weed control at 200 ppm (Plasmopara viticola) | pest or weed control at 200 ppm [1] | inhibition of growth at 60 ppm (Fusarium culmorum) | inhibition of growth at 20 ppm (Pythium ultimum)

C#Cc1cnc2c(F)c(F)c(OC(SC)C(=O)NC(C)(C)C#CCOC)cc2c1 (stereo not drawn) [Example 215]
≥ 60%: pest or weed control at 200 ppm (Phytophthora infestans) | pest or weed control at 200 ppm (Plasmopara viticola) | pest or weed control at 200 ppm [1] | pest or weed control at 200 ppm [2] | inhibition of growth at 60 ppm (Septoria tritici) | inhibition of growth at 20 ppm (Pythium ultimum)

— patent US8415272B2, “Quinoline derivatives and their use as fungicides” (Syngenta Crop Protection LLC, priority 2008, dated 2013)
